Consider 1 substance from patent US11634488B2, “Treatment of B cell malignancies using afucosylated pro-apoptotic anti-CD19 antibodies in combination with anti CD20 antibodies or chemotherapeutics” (INTERNATIONAL—DRUG—DEVELOPMENT—BIOTECH, priority 2017, dated 2023).

This test concerns Human follicular cell line RL. Nature of the test: CDX model for FL: RL cells subcutaneously in SCID mice. Format: in vivo. Particulars: RL xenograft in SCID mice. Here is the method:
Human follicular cell line RL was subcutaneously injected in SCID mice, with a concentration of 5.10^6 cells per injection (200 μL). Mice were randomized when the tumors reached a mean volume of about 100 mm^3 for the 9 groups (total 45 mice). […] The endpoint was defined by animal ethics as a tumor diameter of >18 mm, significant weight loss or alteration of animal well-being. In order to assess the effectiveness of the compounds on tumorigenesis, tumor volume was measured two times a week. The sizes of the primary tumors were measured using calipers and the tumor volume (TV) was extrapolated to a sphere using the formula TV=4/3 […]×r^3, by calculating the mean radius from the two measurements. The median and standard deviation were also calculated for each group. Median is preferred to mean in order to exclude the extreme values. MAb treatment was administered by intraperitoneal injection twice a week during three weeks at 30, 10 or 1 mg/kg doses. The product was prepared in accordance with the sponsor's guidelines, i.e. diluted in PBS. Mice were sacrificed when the tumors reached a maximum volume of 1600 mm^3. The endpoints were defined by […] as a tumor diameter of >18 mm or weight loss of >10% of body weight, or when the tumors are dangerous for mice (necrosis). Statistical analysis was performed with GraphPad Prism software. GraphPad Prism combined scientific graphing, comprehensive curve fitting, understandable statistics, and data organization. The t-test (two-tailed test) was performed on the tumor volume values (mm^3) measured on the day of sacrifice.

Where [1] appears, read: Day 55, 1 mg/kg each MAb, percentage of mice.

Take rituximab: the “mice in complete remission” value (1 mg/kg, day 45) worked out at 33%. Besides, under setting [1], the “Complete Remission” value was 33 and the Tumor progression amounted to 67.
